The structures appear in SMILES notation.

The first assay addresses SARS-CoV-2 main protease (M^pro or 3CL^pro) (Severe acute respiratory syndrome coronavirus 2, UniProt P0DTD1). Description: biochemical. The settings on record: In vitro SARS-COV-2 M^pro IC50.
Consider `C=C(C)C(C=C[C@@H](C)[C@H]1CC[C@H]2[C@@H]3CC=C4CC(O)CC[C@]4(C)[C@H]3CC[C@]12C)CC` (stereo partly drawn) [Compound 1, 24-β-ethyl-cholesta-5(6),22(23),25(26)-triene-3-ol], for which the IC50 came out at 12.5 ± 0.64 µM.

Staying with this assay, now noted: In vitro SARS-COV-2 M^pro IC50, FRET-based assay; mean ± SD.
For `C[C@H]1[C@H](C)CC[C@]2(C)CC[C@]3(C)C(=CC[C@@H]4[C@@]5(C)CC[C@H](O)C(C)(C)[C@@H]5CC[C@]43C)[C@H]12` [Compound 2, α-amyrin], it took 4.18 ± 0.21 µM to reach half-maximal inhibition (IC50).
Same read-out and setting: under `CCCCC/C=C\C/C=C\CCCCCCCC(=O)O` [Compound 3, linoleic acid] stands 20.7 ± 1.05 µM; under `COc1cc(C2CC(=O)c3c(O)cc(O)c(OC)c3O2)ccc1O` (stereo not drawn) [Compound 8, 5,7,4′-trihydroxy-8,3′-dimethoxy flavanone], 27.9 ± 1.42 µM; under `COc1c(O)cc2c(c1O)C(=O)CC(c1ccc(O)cc1)O2` (stereo not drawn) [Compound 9, 5,7,4′-trihydroxy-6-methoxy flavanone], 11.8 ± 0.6 µM.
Still for that read-out and setting: the figure for `COc1cc(-c2cc(=O)c3c(O)cc(OC)c(OC)c3o2)ccc1O` [Compound 10, 4′,5-dihydroxy-3′,7,8-trimethoxyflavone] is 12.8 ± 0.65 µM; for `COc1cc(-c2cc(=O)c3c(O)cc(O)c(OC)c3o2)cc(OC)c1OC` [Compound 11, 5,7-dihydroxy-3′,4′,5′,8-tetramethoxy flavone] it is 5.07 ± 0.26 µM.
On the same count and under the same terms, the figure for `COc1c(O)cc2c(c1O)C(=O)CC(c1cc(O)cc(O)c1)O2` (stereo not drawn) [Compound 13, 3′,5′,5,7-tetrahydroxy-6-methoxyflavanone] is 5.56 ± 0.28 µM.
As to `O=c1cc(-c2ccc(O)c(O)c2)oc2c([C@@H]3O[C@H](CO)[C@@H](O)[C@H](O)[C@H]3O)c(O)cc(O)c12` [Compound 16, orientin], the midpoint of inhibition, the IC50, lay at 27.5 ± 1.4 µM.
On the same count and under the same terms, the figure for `Cc1cccc(C)c1OCC(=O)N[C@@H](Cc1ccccc1)[C@@H](O)C[C@H](Cc1ccccc1)NC(=O)[C@H](C(C)C)N1CCCNC1=O` [Lopinavir, reference compound] is 0.225 ± 0.01 µM.

Still in this assay, the particulars now being: read-out: In vitro SARS-COV-2 M^pro IC50.
For `O=c1cc(-c2ccc(O)c(O[C@@H]3O[C@H](CO)[C@@H](O)[C@H](O)[C@H]3O)c2)oc2cc(O)cc(O)c12` [Compound 17, luteolin-3′-O-β-D-glucoside], the IC50 stood at 10.1 ± 0.52 µM.

A further assay relates to MERS-CoV 3CL^pro.
Assay: not given
As to conditions: cited from earlier work.
`COc1cc(O)cc(O)c1C(=O)/C=C/c1ccc(O)cc1` [Helichrysetin]: the “Inhibition of MERS-CoV 3CL^pro” value is listed as “able to inhibit MERS-CoV 3CL^pro”.
